Reference: patent US20180259530A1, “Method and kit for testing chronic myelogenous leukemia (CML), method for isolating TKI-resistant CML cells, and agent for reducing TKI-resistance of CML and method for screening the same” (The University of Tokyo, priority 2017, published 2018)

Assays:
Assay type in all cases: cell-based, human
[1] = system: mRNA transcribed from the ADAM8 gene in HL60AML cell line; assay: ADAM8 gene expression inhibition by shRNA (mRNA amount); conditions: HL60, lentiviral shRNA, 72 hours puromycin selection; non-target_shRNA defined as 1; FIG. 18
Description: After extraction of total RNA with RNAeasy reagent (QIAGEN), reverse transcription was performed with ReverTra Ace qPCR RT Master Mix (TOYOBO). The primer sequences used for PCR are shown below. Real-time quantitative PCRs were carried out in ABI-7000 Sequencing System with THUNDERBIRD SYBR qPCR Mix, following the manufacturer's instructions (TOYOBO). Each assay was performed in triplicate. 18S rRNA and β-actin were used as endogenous controls.
The amount of mRNA transcribed from the ADAM8 gene in the cells was measured after treatment of an HL60AML cell line with ADAM8_shRNA 1 (SEQ ID NO: 45), ADAM8_shRNA 2 (SEQ ID NO: 46) and ADAM8_shRNA_3 (SEQ ID NO: 47). The target sequences of ADAM8_shRNA_1, ADAM8_shRNA_2 and ADAM8_shRNA_3 are listed as SEQ ID NO: 49, 50 and 51, respectively. Specifically, pLKO.1-puro-CMV-tGFP (Sigma Aldrich Japan) incorporating DNA encoding shRNA was transferred into HEK293 cells together with pMISSION GAG POL (Sigma Aldrich Japan) and pMISSION VSV-G (Sigma Aldrich Japan), to obtain an shRNA-expressing lentivirus. The obtained lentivirus was used to infect HL60, 1 μg/ml puromycin was used for 72 hours of selection, and ADAM8 gene expression in the selected cells was analyzed. The expression level of the ADAM8 gene when using non-target_shRNA that targets a non-ADAM8 gene (SEQ ID NO: 48, target sequence: SEQ ID NO: 52) (indicated as “non-target” in the graph) was defined as 1.

[2] = system: CD34+ADAM8+ CML cells of CML-CP patient; assay: Cell viability assay of CD34+ADAM8+ and CD34+ADAM8- cell fractions with imatinib; conditions: 48 hours exposure to imatinib; FIG. 11
Description: (§1) The cell viability assay and apoptosis assay were carried out according to the method described in Ma, L. et al., Sci. Transl. Med. 6, 252ral21(2014).

CML-pre-HPCs = assay: Apoptosis assay in hematopoietic differentiation of CML-iPSCs; conditions: 5 μM imatinib, 48 hours from medium exchange; FIG. 5
[3] = system: CD34+ADAM8+ CML cells of CML-CP patient; assay: Apoptosis assay of CD34+ADAM8+ and CD34+ADAM8- cell fractions with imatinib; conditions: 48 hours exposure to imatinib; FIG. 12
Description: as §1

[4] = system: CD34+ADAM8+ cells (CML-CP9- and CML-CP23-derived); assay: Cell viability assay with imatinib plus GM6001; conditions: 1.0 μM imatinib and 2.5 μM GM6001 vs 1.0 μM imatinib alone; FIG. 21, 22
Description: as §1

CD34+ADAM8- cells = assay: Cell viability assay with GM6001, CD34+ADAM8- cells; conditions: GM6001 2.5 μM; FIG. 20
Description: as §1
(§2) CD34+ADAM8+ cells and CD34+ADAM8− cells were used for a cell viability assay in the absence of GM6001 (Merck Millipore) and in the presence of GM6001 at specific concentrations (2.5 μM, 5 μM, 20 μM). […] GM6001 was confirmed to have no effect on the cell viability of either CD34+ADAM8+ cells or CD34+ADAM8− cells, at a concentration of 2.5 μM.

CD34+ADAM8+ cells = assay: Cell viability assay with GM6001, CD34+ADAM8+ cells; conditions: GM6001 2.5 μM; FIG. 20
Description: as §1, §2

Compound: ADAM8_shRNA_1: shRNA that inhibits expression of the ADAM8 gene, SEQ ID NO: 45, target sequence SEQ ID NO: 49 (CCGGGGACAAGCUAUAUCAGAAACUCUCGAGAGUUUCUGAUAUAGCUUGUCCUUUUU)
- knockdown of ADAM8 gene expression (mRNA) [1]: confirmed to have the ability to knockdown ADAM8

Compound: ADAM8_shRNA_2: shRNA that inhibits expression of the ADAM8 gene, SEQ ID NO: 46, target sequence SEQ ID NO: 50 (CCGGGGGCCUGGAGAUUUGGAAUAGCUCGAGCUAUUCCAAAUCUCCAGGCCCUUUUU)
- knockdown of ADAM8 gene expression (mRNA) [1]: confirmed to have the ability to knockdown ADAM8

Compound: Cc1ccc(NC(=O)c2ccc(CN3CCN(C)CC3)cc2)cc1Nc1nccc(-c2cccnc2)n1 [imatinib]
- imatinib resistance (cell viability) of ADAM8+ CML cells compared to ADAM8- CML cells [2]: greater imatinib resistance
- apoptosis induction in CML-pre-HPCs (CML-pre-HPCs): not induced to undergo apoptosis
- apoptosis induced by imatinib in ADAM8+ CML cells compared to ADAM8- CML cells [3]: suppressed

Compound: ADAM8_shRNA_3: shRNA that inhibits expression of the ADAM8 gene, SEQ ID NO: 47, target sequence SEQ ID NO: 51 (CCGGGGAAUAGUCAGGACAGGUUCCCUCGAGGGAACCUGUCCUGACUAUUCCUUUUU)
- knockdown of ADAM8 gene expression (mRNA) [1]: confirmed to have the ability to knockdown ADAM8

Compound: CNC(=O)[C@H](Cc1c[nH]c2ccccc12)NC(=O)[C@@H](CC(=O)NO)CC(C)C [GM6001, (2R)—N^4-Hydroxy-N^1-[(1S)-2-(1H-indol-3-ylmethyl)-2-(methylamino)-2-oxoethyl]-2-(2-methylpropyl)butanediamide]
- TKI resistance (cell viability) on inhibition of ADAM8 activity [4]: TKI resistance is lowered
- effect on cell viability of CD34+ADAM8- cells (CD34+ADAM8- cells): no effect
- effect on cell viability of CD34+ADAM8+ cells (CD34+ADAM8+ cells): no effect
